“And” between values parts separate entries of the source, which are not always exact repeats. Equal values may be shown once.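 Cultured in 96-well plates, cells were exposed to test compound for 48 hours across five concentrations. Here, GI50 denotes the concentration required for 50% inhibition of growth. At the TGI there is no net growth.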

Test systems include HS 578T breast; COLO 205 colon; SK-MEL-5 melanoma; OVCAR-5 ovarian; BT-549 breast; HOP-92 NSCLC; ACHN renal; SNB-19 CNS; UACC-62 melanoma; A549 NSCLC.
What all share (assay): inhibition of tumour cell growth, NCI panel, 48 h

With `Cc1ccc(C(=O)NC2CCC2)cc1-c1ccc(C(=O)NCC2CC2)cc1`, the GI50 in the assay with HS 578T breast was over 25 µM; with COLO 205 colon it was over 25 µM; in the assay with SK-MEL-5 melanoma, over 21.5 µM; in the assay with OVCAR-5 ovarian, over 25 µM; in the assay with BT-549 breast, over 25 µM; in the assay on HOP-92 NSCLC, over 21.3 µM. The GI50 with ACHN renal, with SNB-19 CNS, in the assay with UACC-62 melanoma and in the assay on A549 NSCLC was over 25 µM each time. Also, the TGI with HS 578T breast, in the assay on COLO 205 colon, in the assay with SK-MEL-5 melanoma, with OVCAR-5 ovarian, in the assay on BT-549 breast and in the assay on HOP-92 NSCLC was over 25 µM each time. The TGI in the assay with ACHN renal, in the assay with SNB-19 CNS, in the assay on UACC-62 melanoma and with A549 NSCLC was over 25 µM throughout.
As for `NC(=O)c1ccc(-c2nc(-c3ccc4c(c3)OCO4)c(-c3ccccn3)[nH]2)cc1`, the GI50 with HS 578T breast is > 25 µM and 28.2 µM; in the assay with COLO 205 colon, > 25 µM and 31.4 µM; with SK-MEL-5 melanoma, > 25 µM and 15.1 µM; in the assay with OVCAR-5 ovarian, > 25 µM and 32 µM; in the assay on BT-549 breast it was > 25 µM and 22.5 µM; in the assay with HOP-92 NSCLC it was > 25 µM and 11.4 µM. In addition, the GI50 in the assay with ACHN renal is > 25 µM and 34 µM; in the assay with SNB-19 CNS it was > 25 µM and 54.6 µM; in the assay on UACC-62 melanoma it was > 25 µM and 35.1 µM; in the assay with A549 NSCLC, > 25 µM and 27.7 µM. In addition, the TGI in the assay with HS 578T breast is over 100 µM; in the assay on COLO 205 colon, over 100 µM; in the assay with SK-MEL-5 melanoma, > 25 µM and 29.2 µM; in the assay with OVCAR-5 ovarian it was over 100 µM; with BT-549 breast it was over 96.7 µM; in the assay with HOP-92 NSCLC it was over 84.6 µM. For the same compound, the TGI with ACHN renal, in the assay with SNB-19 CNS, in the assay with UACC-62 melanoma and in the assay on A549 NSCLC was over 100 µM each time.
`O=C1NOC(c2ccc(O)cc2)(c2ccc(O)cc2)c2ccccc21`: the GI50 in the assay on HS 578T breast, with COLO 205 colon, in the assay on SK-MEL-5 melanoma, in the assay on OVCAR-5 ovarian, in the assay on BT-549 breast and in the assay with HOP-92 NSCLC was over 100 µM throughout. For the same compound, the GI50 in the assay on ACHN renal, in the assay with SNB-19 CNS, in the assay with UACC-62 melanoma and with A549 NSCLC was over 100 µM in each case. For the same compound, the TGI in the assay with HS 578T breast, with COLO 205 colon, in the assay with SK-MEL-5 melanoma, in the assay with OVCAR-5 ovarian, in the assay with BT-549 breast and with HOP-92 NSCLC was over 100 µM throughout. Further, the TGI with ACHN renal, in the assay with SNB-19 CNS, in the assay with UACC-62 melanoma and with A549 NSCLC was over 100 µM each time.
For the compound `C[C@]12CC[C@@H]3c4ccc(O)cc4CC[C@H]3[C@@H]1Cc1cnc(N)nc12`, the GI50 in the assay on HS 578T breast was 18.4 µM; in the assay with COLO 205 colon, 13.7 µM; in the assay on SK-MEL-5 melanoma, 12.8 µM; with OVCAR-5 ovarian, 28.9 µM; in the assay with BT-549 breast it was 18.7 µM; in the assay on HOP-92 NSCLC it was 11.7 µM. The GI50 in the assay on ACHN renal is 21.1 µM; with SNB-19 CNS, 14.4 µM; with UACC-62 melanoma, 13.6 µM; in the assay with A549 NSCLC, 44 µM. Further, the TGI in the assay on HS 578T breast came out at 40.7 µM; in the assay on COLO 205 colon it was 27.6 µM; with SK-MEL-5 melanoma it was 26.1 µM; in the assay on OVCAR-5 ovarian, 76.1 µM; in the assay with BT-549 breast, 53.2 µM; with HOP-92 NSCLC, 31.6 µM. The TGI in the assay with ACHN renal is 51.3 µM; in the assay on SNB-19 CNS it was 43 µM; in the assay with UACC-62 melanoma, 27.2 µM; with A549 NSCLC, over 100 µM.
Take `C#CCNCCN1C(=O)c2ccc3c4c(ccc(c24)C1=O)C(=O)N(CCNCC#C)C3=O`: the GI50 was 8.35 µM in the assay on HS 578T breast; 2 µM in the assay on COLO 205 colon; 1.65 µM with SK-MEL-5 melanoma; 8.63 µM in the assay with OVCAR-5 ovarian; 7.27 µM in the assay with BT-549 breast; 7.39 µM with HOP-92 NSCLC. For the same compound, the GI50 was 2.63 µM in the assay on ACHN renal, 3.56 µM in the assay on SNB-19 CNS, 1.71 µM in the assay on UACC-62 melanoma and 2.69 µM in the assay on A549 NSCLC. The TGI worked out at 29.2 µM in the assay on HS 578T breast; 6.92 µM with COLO 205 colon; 6.56 µM in the assay with SK-MEL-5 melanoma; 18.3 µM with OVCAR-5 ovarian; 14.7 µM in the assay with BT-549 breast; 22.9 µM with HOP-92 NSCLC. Also, the TGI came out at 9.8 µM with ACHN renal, 10.6 µM in the assay on SNB-19 CNS, 6.68 µM in the assay with UACC-62 melanoma and 11.6 µM in the assay on A549 NSCLC.
Consider `O=C1c2ccc3c4c(ccc(c24)C(=O)N1CCCNCc1ccccc1Cl)C(=O)N(CCCNCc1ccccc1Cl)C3=O`, for which the GI50 was 0.984 µM with HS 578T breast; 0.0896 µM in the assay on COLO 205 colon; 0.399 µM in the assay on SK-MEL-5 melanoma; 0.592 µM in the assay on OVCAR-5 ovarian; 0.87 µM in the assay with BT-549 breast; 0.728 µM in the assay on HOP-92 NSCLC. For the same compound, the GI50 was 0.206 µM with ACHN renal, 0.314 µM in the assay on SNB-19 CNS, 0.671 µM in the assay on UACC-62 melanoma and 0.23 µM in the assay with A549 NSCLC. Further, the TGI with HS 578T breast was 11.9 µM; with COLO 205 colon, 0.166 µM; in the assay on SK-MEL-5 melanoma it was 1.02 µM; in the assay with OVCAR-5 ovarian it was 1.67 µM; with BT-549 breast, 1.8 µM; with HOP-92 NSCLC it was 2.37 µM. For the same compound, the TGI in the assay on ACHN renal came to 0.859 µM; in the assay on SNB-19 CNS, 0.987 µM; with UACC-62 melanoma, 1.43 µM; in the assay on A549 NSCLC it was 0.833 µM.
Turning to `N#CSCc1ccc(Cl)c(CSC#N)c1`, the GI50 was 3.16 µM in the assay with HS 578T breast; 0.0513 µM with COLO 205 colon; 0.33 µM with SK-MEL-5 melanoma; 1.77 µM with OVCAR-5 ovarian; 0.303 µM in the assay on BT-549 breast; 0.25 µM in the assay with HOP-92 NSCLC. Moreover, the GI50 with ACHN renal is 0.0865 µM; in the assay on SNB-19 CNS, 10.5 µM; in the assay on UACC-62 melanoma, 2.53 µM; with A549 NSCLC, 1.44 µM. Besides, the TGI came to 97.9 µM in the assay with HS 578T breast; 11.4 µM in the assay with COLO 205 colon; 12.2 µM in the assay on SK-MEL-5 melanoma; 24.5 µM with OVCAR-5 ovarian; 11.2 µM in the assay on BT-549 breast; 6.51 µM with HOP-92 NSCLC. Also, the TGI in the assay with ACHN renal was 22.6 µM; in the assay on SNB-19 CNS, over 100 µM; in the assay on UACC-62 melanoma, 23.7 µM; in the assay with A549 NSCLC it was over 58.4 µM.
As for `CN1CCc2[nH]nc(-c3n[nH]c4c3CN(C)CC4)c2C1`, the TGI in the assay with HS 578T breast, in the assay on COLO 205 colon, in the assay with SK-MEL-5 melanoma, in the assay on OVCAR-5 ovarian, with BT-549 breast and in the assay with HOP-92 NSCLC was over 100 µM in each case. Besides, the TGI in the assay with ACHN renal, in the assay with SNB-19 CNS, in the assay on UACC-62 melanoma and in the assay on A549 NSCLC was over 100 µM each time.
For the compound `CC1=C(CCC(C)NCc2ccc(OCCCN3CCCCC3)cc2)C(C)(C)CCC1` (stereo not given), the GI50 in the assay with HS 578T breast was 1.61 µM; in the assay on COLO 205 colon, 0.197 µM; with SK-MEL-5 melanoma it was 1.68 µM; with OVCAR-5 ovarian, 1.91 µM; in the assay with BT-549 breast it was 2.08 µM; in the assay with HOP-92 NSCLC, 1.26 µM. Further, the GI50 with ACHN renal was 1.69 µM; in the assay on SNB-19 CNS it was 2.01 µM; in the assay with UACC-62 melanoma, 1.94 µM; in the assay with A549 NSCLC it was 2.17 µM. Besides, the TGI was determined as 3.79 µM in the assay with HS 578T breast; 0.427 µM in the assay with COLO 205 colon; 3.06 µM with SK-MEL-5 melanoma; 4.11 µM with OVCAR-5 ovarian; 3.89 µM in the assay on BT-549 breast; 2.72 µM in the assay on HOP-92 NSCLC. In addition, the TGI was 3.17 µM with ACHN renal, 4.26 µM in the assay on SNB-19 CNS, 3.73 µM in the assay on UACC-62 melanoma and 4.35 µM with A549 NSCLC.
`COC(=O)C1=C(C)NC(C)=C(C(=O)OCC(C)C)C1c1ccccc1[N+](=O)[O-]` (stereo not given): the GI50 is 13.9 µM with HS 578T breast; 13.3 µM in the assay with COLO 205 colon; 2.72 µM in the assay on SK-MEL-5 melanoma; 7.52 µM with OVCAR-5 ovarian; 5.06 µM in the assay with BT-549 breast; 4.57 µM with HOP-92 NSCLC. The GI50 in the assay with ACHN renal was 2.22 µM; with SNB-19 CNS, 8.2 µM; in the assay with UACC-62 melanoma, 2.28 µM; with A549 NSCLC, 4.52 µM. The TGI in the assay with HS 578T breast was over 100 µM; with COLO 205 colon, 26 µM; in the assay on SK-MEL-5 melanoma it was 10.1 µM; in the assay with OVCAR-5 ovarian, 22.5 µM; in the assay on BT-549 breast, 17.1 µM; in the assay on HOP-92 NSCLC, 19.8 µM. In addition, the TGI in the assay with ACHN renal came out at 10.6 µM; in the assay with SNB-19 CNS, 64.3 µM; in the assay with UACC-62 melanoma, 11.2 µM; with A549 NSCLC, 18.9 µM.

The values are drawn from PubChem BioAssay (NCI).
